Experiments:
[1] = tested on: human colorectal adenocarcinoma (Caco-2 cell lines); test: MTT cytotoxicity assay, Caco-2; assay type: cell-based; conditions: Caco-2, 48 h
Description: (§1) The synthesized compounds were studied for their cytotoxic activity against several human cancer cell lines, namely human osteosarcoma (HOS cell lines), human breast adenocarcinoma (MDA-MB-231 cell lines), human breast cancer (MCF-7 cell lines), human colorectal adenocarcinoma (Caco-2 cell lines) and human colon cell line (HCT-116 cell lines) using MTT assay at 100 µM, and the results were outlined as shown in Table 1.
(§2) Human osteosarcoma (HOS cell line), human breast adenocarcinoma (MDA-MB-231cell lines), human breast cancer (MCF-7 cell lines), human colorectal adenocarcinoma (Caco2 cell lines), human colon cell line (HCT-116 cell lines), normal human cell lines (BJ-1), and “a telomerase immortalized normal foreskin fibroblast cell line” were obtained from Karolinska Center, Department of Oncology and Pathology, Karolinska Institute and Hospital, Stockholm, Sweden.
(§3) Following culturing for 10 days, the cells were seeded at concentration of 10 × 10^3 cells per well in case of MCF-7 & MDA, 20 × 10^3 cells/well in a fresh complete growth medium in case of HCT-116, Caco2, & HOS and 40 × 10^3 cells/well in case of BJ-1 at 37 °C for 24 h in a water jacketed carbon dioxide incubator. After 48 h’ incubation, the medium was aspirated, and then 40 μl MTT salt (2.5 mg/mL) were added for a further 4 h; 200 μl 10% sodium dodecyl sulphate (SDS) in deionized water were added to each well and incubated overnight at 37 °C. The absorbance was measured at 595 nm with reference 690 nm. Doxorubicin was used as positive control, and 0.5% DMSO was used as negative control. IC50 values were calculated, using a probit analysis, and by utilizing the SPSS computer program (SPSS for Windows, statistical analysis software package/version 9/1989 SPSS Inc., Chicago, IL, USA).

[2] = target: CDK-2/cyclin A2 (Homo sapiens, UniProt P24941); test: CDK-2/cyclin A2 inhibitory assay (ELISA); assay type: biochemical; conditions: mean of three values; read-out: IC50 (Mean ± SEM), CDK-2/Cyclin A2
Description: Assay of CDK-2/cyclin A2 was achieved through ELISA using an affinity tag labeled capture antibody. […] After the incubation period, the unrestrained substance has been discarded, and the wells have been washed. The added TMB (3,3′,5,5′-tetramethylbenzidine) substrate was prompted by Horseradish peroxidase (HRP), and blue coloration appeared. This reaction was stopped through the addition of stop solution to complete changing in colour from blue to yellow. The created signals were equivalent to the quantity of bound analyte, and the Robonik P2000 ELISA reader was used to record the intensity at a certain wavelength (450 nm).

[3] = tested on: Bcl-2 protein in MCF-7 cells; test: Bcl-2 protein level in MCF-7 cells (ELISA); assay type: cell-based, human; conditions: MCF-7, 19.6 µM (IC50), 24 h
Description: (§4) Referring to the cytotoxicity results, the 1,2,4-triazole-thioglycoside derivative 10 has a mitochondria-apoptotic effect on breast cancer cells through reduction of MTT by a mitochondrial enzyme. […] Along with that, such derivative elevated the release of cytochrome c into the cytosol in the treated MCF-7, in comparison with untreated one from 0.176 to 0.766 ng/ml due to disturbing mitochondrial outer membrane permeability (MOMP). In addition, the target 10 achieved better results than those afforded by from the standard 5-fluorouracil. Moreover, the level of caspase-7 was elevated in treated cells with the target 10 rather than that with 5-fluorouracil or the untreated cells as shown in Figure 4.
Bcl-2 (ng/mL) in the samples and standards were estimated as reported. A biotin-conjugated antibody was added followed by streptavidin-HRP. The reaction is then terminated by adding acid and absorbance was measured at 450 nm.
(§5) Figure 4 Levels of Bax, Bcl-2, Bax/Bcl-2 ratio, cytochrome c and caspase-7 protein in MCF-7 cells after treatment with compound 10 and the standard drug for 24 h compared with the untreated one, 5-flu: 5-fluorouracil as a reference drug.

[4] = tested on: human osteosarcoma (HOS cell lines); test: MTT cytotoxicity assay, HOS; assay type: cell-based; conditions: 48 h
Description: as §1, §2, §3

[5] = tested on: MCF-7 cells; test: Cell cycle analysis, PI flow cytometry; assay type: cell-based, human
Description: (§6) Cell cycle analysis and apoptosis detection were carried out by flow cytometry. MCF-7 cells were seeded at 1–5 × 10^4 and incubated at 37 °C, 5% CO2 overnight. After treatment with the tested compound 10, for 24 h, cell pellets were collected and centrifuged (300× g, 5 min). For cell cycle analysis, cell pellets were fixed with 70% ethanol on ice for 15 min and collected again [54]. The collected pellets were incubated with propidium iodide (PI) staining solution at room temperature for 1 h. Apoptosis detection was performed by Annexin V-FITC apoptosis detection kit (BioVision, Inc, Milpitas, CA, USA) following the manufacturer’s protocol. The samples were analyzed using FACS Calibur flow cytometer (BD Biosciences, San Jose, CA).
(§7) Figure 5 Cell cycle analysis and the effect of the target 10 on the percentage of V-FITC-positive annexin staining in MCF-7 cells in comparison with the control. TEXT PRINTED IN THE PICTURE: (C) cpd10: MCF7: 6.07%; MCF7: 18.11%; MCF7: 25.44% | (D) cpd10: MCF7: %DIP G1 41.96%; MCF7: %DIP G2/M 6.61%; MCF7: %DIP S 51.43%

[6] = tested on: cytochrome c in MCF-7 cells; test: Cytochrome c release in MCF-7 cells (ELISA); assay type: cell-based, human; conditions: MCF-7, 19.6 µM (IC50), 24 h; untreated 0.176
Description: as §4
Cytochrome c specific antibodies have been precoated onto 96-well plates. Cytochrome c were analyzed by enzyme-linked immunosorbent assays (ELISAs) using commercial kits (ab119521; Abcam, Cambridge, MA, USA). The optimal dilutions were determined, and ELISAs were performed according to the manufacturer’s instructions.
as §5

[7] = tested on: human colon cell line (HCT-116 cell lines); test: MTT cytotoxicity assay, HCT-116; assay type: cell-based; conditions: HCT-116, 48 h
Description: as §1, §2, §3

[8] = tested on: Bax protein in MCF-7 cells; test: Bax protein level in MCF-7 cells (ELISA); assay type: cell-based, human; conditions: MCF-7, 19.6 µM (IC50), 24 h
Description: as §4
Bax protein levels picogram per ml (Pg/mL) were evaluated according to previously reported procedure. Monoclonal antibody, specific to Bax captured on the plate, was added. After incubation, Streptavidin conjugated to Horseradish peroxidase was added. The reaction was then terminated by adding acid and optical density of the color produced measured at 450 nm.
as §5

[9] = tested on: human breast adenocarcinoma (MDA-MB-231 cell lines); test: MTT cytotoxicity assay, MDA-MB-231; assay type: cell-based; conditions: MDA-MB-231, 48 h
Description: as §1, §2, §3

[10] = tested on: human breast cancer (MCF-7 cell lines); test: MTT cytotoxicity assay, MCF-7; assay type: cell-based
Description: as §1, §2, §3

[11] = tested on: MCF-7 cells; test: Apoptosis detection, Annexin V-FITC flow cytometry; assay type: cell-based, human
Description: as §6, §7

SMILES: CCn1c(COc2ccc3c(-c4ccccc4)cc(=O)oc3c2)nnc1SC1OCC(O)C(O)C1O [Compound 10, 4-Phenyl-7-((4-ethyl-5-(1-(β-D-xylopyranosyl)thio)-4H-1,2,4-triazol-3-yl)meth-oxy)-2H-chromen-2-one]
- cytotoxicity at 100 µM [1]: 0.7 ± 0.003%
- IC50 [2]: 0.15 µM
- Downregulation of anti-apoptotic Bcl-2 protein versus untreated cells [3]: 5.3 folds
- cytotoxicity at 100 µM [4]: 5.3 ± 0.2%
- Increase in the cell percentage at the S phase versus untreated ([5]; MCF-7, 19.6 µM (IC50), 24 h): 1.7 fold
- Cell percentage at the S phase ([5]; MCF-7, 19.6 µM (IC50), 24 h, untreated 29.63%): 51.43%
- %DIP G1 ([5]; MCF-7, Figure 5D): 41.96%
- %DIP G2/M ([5]; MCF-7, Figure 5D): 6.61%
- Cytochrome c released into the cytosol [6]: 0.766 ng/mL
- cytotoxicity at 100 µM [7]: 27.2 ± 0.7%
- Upregulation of pro-apoptotic Bax protein versus untreated cells [8]: 4 folds
- cytotoxicity at 100 µM [9]: 20.6 ± 0.5%
- melting point: 178 to 179 °C
- cytotoxicity at 100 µM ([10]; MCF7, 48 h): 66.3 ± 1%
- IC50 ([10]; MCF7, MTT, 0.78–100 µM, ± SD): 19.6 ± 0.7 µM
- Secondary late apoptosis ([11]; MCF-7, 19.6 µM (IC50), 24 h, untreated 0.18): 18.11%
- Early apoptosis ([11]; MCF-7, 19.6 µM (IC50), 24 h, untreated 0.47): 25.44%
- Annexin V-FITC staining, third percentage not named in the picture text ([11]; MCF-7, Figure 5C): 6.07%
